# Laboratory results published in US20210063414A1, “METHODS FOR PREVENTING AND/OR TREATING BONE LOSS CONDITIONS BY MODULATING IRISIN” (Dana-Farber Cancer Institute, Inc., priority 2018, published 2021).
# “Also recorded” adds a separate entry of the source.
# System: MLO-Y4 cells
# Experiment: Integrin-like signaling (pFAK, pZyxin, pAKT, pCREB) in MLO-Y4 cells, immunoblot
# Format: cell-based
# Details: MLO-Y4, inhibitor pre-treatment 10 minutes before irisin
# Experimental: Integrin heterodimer binds to its ligand. The interaction results in phosphorylation of FAK and Zyxin, followed by phosphorylation of AKT (at T308) and CREB. PM is plasma membrane. FIG. 2C and FIG. 2D show the immunoblots. MLO-Y4 cells were seeded and incubated until 60% cell density. The cells were incubated with serum free medium (FreeStyle™ 293 medium) for 4 hours and were treated for indicated time with 10 nM norepinephrine or irisin (FIG. 2C) or indicated concentrations of irisin for 10 minutes (FIG. 2D). Cells were lysed to detect the indicated protein level using immunoblot analysis.
# Certain materials and methods were used to generate the results described herein. For example, the data shown in FIG. 1A resulted from MLO-Y4 (an osteocyte-like cell line) cells treated with the indicated concentration of irisin and hydrogen peroxide for 4 hours. Cells were stained with Hoechst 33342 (ThermoFisher Scientific, catalog number H3570) and Eth-D1 (ThermoFisher Scientific, catalog number E1169) and analyzed to determine the percentage of cell death using ImageJ. The data shown in FIG. 2D resulted from MLO-Y4 incubated in serum free medium (FreeStyle™ 293 expression medium, ThermoFisher Scientific, catalog number 12338018) for 4 hours followed by treatment of indicated concentrations of irisin for 10 minutes. Cells were lysed to detect the indicated protein level using immunoblot analysis (Cell Signaling Technology, catalog numbers 3283S, 3285S, 8467S, 3553S, 9198S, and 9104S; Abcam, catalog number ab49900-100ul). The data shown in FIG. 3 resulted from 3T3-F442A cells incubated in serum free medium for 4 hours followed by treatment of indicated concentrations of irisin for 10 minutes. Cells were lysed by RIPA buffer to detect the indicated protein level using immunoblot analysis. The data shown in FIG. 4 were generated from 100 nM flag-tagged irisin (Enzo life sciences, catalog number ADI-908-307-3010) incubated with 5 nM of the indicated 6 his-tag integrins (R & D Systems Inc., catalog numbers 7064-AB-025, 5668-A4-050, 5438-A9-050, 6357-AB-050, and 6579-AV-025) in the presence of RGDS peptide (R & D Systems Inc., catalog number 3498/10) or its control peptide (Enzo Life Sciences, catalog Number BML-P701-0005) followed by immunoprecipitation using 6 his-tag beads (ThermoFisher Scientific, catalog number R901-01). Co-precipitated irisin was analyzed by immunoblot analysis against flag tag (Sigma Aldrich, catalog number A8592). The data shown in FIGS. 5A and 5B were generated from MLO-Y4 cells treated and analyzed as in the experiments used to generate the data shown in FIG. 2D, except that pre-treatment of 100 nM RGDS (FIG. 5A) or echistatin (R & D Systems Inc., catalog number 3202/100U) (FIG. 5B) for 10 minutes was performed before irisin treatment. The data shown in FIGS. 6A and 6B were generated from MLO-Y4 cells incubated in serum free medium for 3 hours followed by treatment of indicated time of 10 nM irisin for 16 hours. RNAs were extracted from the cells and the sclerostin mRNA level was analyzed by qPCR (FIG. 6A) or treated and analyzed as in (FIG. 6A), except that pre-treatment of 10 μM RGDS, RGDyK (Selleck, catalog number S7844), or echistatin was performed for 10 minutes before irisin treatment. The data shown in FIGS. 7A and 7B were generated from 8 week-old mice injected with the indicated dose of irisin for 6 days. Tibias were collected and treated with collagenase to obtain mRNA from the osteocyte-enriched bones. Sclerostin mRNA level was analyzed by qPCR (FIG. 7A). Serum was collected to analyze the sclerostin protein level using ELISA kit (R&D Systems Inc., catalog number MSST00) (FIG. 7B). The data shown in FIG. 8 were generated from 8 week-old mice injected with the indicated dose of irisin for 6 days. Epididymal fats were collected, RNAs were extracted from the tissues, and mRNA levels of the indicated genes were analyzed by qPCR. […]
row,Compound,"effect of integrin inhibitor on irisin-induced signaling (phosphorylation of FAK, Zyxin, CREB)"
1,N=C(N)NCCC[C@@H]1NC(=O)[C@H](CCCCN)NC(=O)[C@@H](Cc2ccc(O)cc2)NC(=O)[C@H](CC(=O)O)NC(=O)CNC1=O [cyclo RGDyK],block irisin-induced signaling
2,"RGDS peptide: classical integrin competitive inhibitory peptide, commercially available form of the RGD peptide",most irisin signaling in osteocytes was inhibited; also recorded: dramatically suppressed
